{"source": "paper PMC4099972", "about": "“Extracts from New Zealand Undaria pinnatifida Containing Fucoxanthin as Potential Functional Biomaterials against Cancer in Vitro” (Journal of Functional Biomaterials, 2014)", "key": {"[1]": {"settings": "cited from earlier work"}, "[2]": {"system": "human umbilical vein endothelial (HUVEC)", "test": "MTT cell viability assay, non-cancer HUVEC", "format": "cell-based", "settings": "extract concentrations normalized to fucoxanthin purity, read-out: IC50, growth inhibition (non-cancer cell line)", "method": "(§1) All three cell lines were purchased from Invitrogen NZ Ltd. HDFb was maintained in Dulbecco’s Modified Eagle Medium supplemented with LSGS. HUVEC cells were maintained in Cascade Biologics Medium 200 supplemented with LSGS. HEK293 cells were maintained in RPMI 1640 culture medium supplemented with 1% Penicillin-Streptomycin, 4 mM L-glutamine and 10% of FBS. Cell viability was determined by MTT assay as previously described with a slight modification. Briefly, the optimized seeding cell density was 5000 cells/well for A549 and WiDr, while for Hep G2, Malme-3M, SiHa, NCI-H522, Lovo, SK-N-SH, and MCF-7, the seeding cell density was 10,000 cells/well. Microplate with 96 wells was used for the experiment and each well contained 100 μL of medium with cancer cells. […] All cancer cell lines were cultured in the presence or absence of fucoxanthin extract or standard. […] An aliquot of 20 μL of MTT reagent in phosphate buffer saline at a concentration of 5 mg/mL was added into each well after experiment, and washed with 150 µL of PBS. After incubation for 4 h at 37 °C, the formed MTT-formazan was dissolved in 150 μL DMSO."}, "human non-cancer cells": {"system": "human non-cancer cells", "test": "MTT cell viability, human non-cancer cells (control study)", "format": "cell-based", "settings": "1.56 μM", "from_the_text": "Three human non-cancer cell lines including human dermal fibroblasts (HDFb), human umbilical vein endothelial (HUVEC) and human embryonic kidney (HEK293) were used to determine in vitro toxicity of pure fucoxanthin and extracts from NZ U. pinnatifida. All three cell lines were purchased from Invitrogen NZ Ltd. HDFb was maintained in Dulbecco’s Modified Eagle Medium supplemented with LSGS. HUVEC cells were maintained in Cascade Biologics Medium 200 supplemented with LSGS. HEK293 cells were maintained in RPMI 1640 culture medium supplemented with 1% Penicillin-Streptomycin, 4 mM L-glutamine and 10% of FBS.\nCell viability was determined by MTT assay as previously described [34] with a slight modification. […] Treatment time was 24, 48 or 72 h.\nPure fucoxanthin standard and all U. pinnatifida fucoxanthin extracts were dissolved in pure ethanol to 5 mM as a stock solution, and the final ethanol concentration was 2% in the culture medium. An aliquot of 20 μL of MTT reagent in phosphate buffer saline at a concentration of 5 mg/mL was added into each well after experiment, and washed with 150 µL of PBS. After incubation for 4 h at 37 °C, the formed MTT-formazan was dissolved in 150 μL DMSO. The viable cell amount was determined by the absorbance at 540 nm using a multiplate-reader (UV-visible FLUOStar Omega Multidetection Microplate Reader, AlphaTech NZ Ltd., Auckland, New Zealand). […]"}, "[3]": {"system": "all tested cancer cell lines (nine human cancer cell lines)", "test": "MTT cell viability, all tested cancer cell lines", "format": "cell-based", "settings": "72 h, read-out: cell viability compared with untreated cell cultures", "method": "All nine cancer cell lines were treated with pure fucoxanthin (Sigma) at concentrations of 1.5625, 6.25, 12.5, 25, 50, 80, 100 µM for 24, 48 and 72 h, respectively (Figure 3). There was significant difference between high and low concentrations and between 24, 48 and 72 h treatments (p < 0.05).\nHuman cancer cell lines used in this study were purchased from ATCC (Cryosite Ltd., Sydney, NSW, Australia), including lung carcinoma line A549, colon adenocarcinoma lines WiDr and Lovo, lung cancer line NCI-H522, hepatocellular carcinoma line Hep G2, neuroblastoma line SK-N-SH, breast adenocarcinoma line MCF, cervix squamous line SiHa, and malignant melanoma line Malme-3M. All nine cell lines were maintained in RPMI 1640 culture medium supplemented with 1% Penicillin-Streptomycin, 4 mM L-glutamine and 10% of FBS except Malme-3M (20% FBS). […]\nCell viability was determined by MTT assay as previously described with a slight modification. […]\nPure fucoxanthin standard and all U. pinnatifida fucoxanthin extracts were dissolved in pure ethanol to 5 mM as a stock solution, and the final ethanol concentration was 2% in the culture medium. […] The viable cell amount was determined by the absorbance at 540 nm using a multiplate-reader (UV-visible FLUOStar Omega Multidetection Microplate Reader, AlphaTech NZ Ltd., Auckland, New Zealand). […]"}, "[4]": {"system": "SK-N-SH cell line (neuroblastoma)", "test": "MTT cell viability assay, SK-N-SH", "format": "cell-based", "settings": "Homo sapiens, extract concentrations normalized to fucoxanthin purity, read-out: IC50, growth inhibition", "method": "(§2) All cancer cell lines were maintained in tissue culture incubator at 37 °C and 5% carbon dioxide. Cell viability was determined by MTT assay as previously described with a slight modification. Briefly, the optimized seeding cell density was 5000 cells/well for A549 and WiDr, while for Hep G2, Malme-3M, SiHa, NCI-H522, Lovo, SK-N-SH, and MCF-7, the seeding cell density was 10,000 cells/well. Microplate with 96 wells was used for the experiment and each well contained 100 μL of medium with cancer cells. […] All cancer cell lines were cultured in the presence or absence of fucoxanthin extract or standard. […] An aliquot of 20 μL of MTT reagent in phosphate buffer saline at a concentration of 5 mg/mL was added into each well after experiment, and washed with 150 µL of PBS. After incubation for 4 h at 37 °C, the formed MTT-formazan was dissolved in 150 μL DMSO. The viable cell amount was determined by the absorbance at 540 nm using a multiplate-reader (UV-visible FLUOStar Omega Multidetection Microplate Reader, AlphaTech NZ Ltd., Auckland, New Zealand)."}, "[5]": {"system": "NCI-H522 cell line (lung cancer)", "test": "MTT cell viability assay, NCI-H522", "format": "cell-based", "settings": "Homo sapiens, extract concentrations normalized to fucoxanthin purity, read-out: IC50, growth inhibition", "method": "as §2"}, "rats": {"system": "rats", "parameters": "method as in doi:10.3136/nskkk.55.304", "settings": "oral, 750 mg/kg for 28 days, purity 95%; cited from earlier work"}, "[6]": {"system": "human embryonic kidney (HEK293)", "test": "MTT cell viability assay, non-cancer HEK293", "format": "cell-based", "settings": "for IC50: Homo sapiens, extract concentrations normalized to fucoxanthin purity, read-out: IC50, growth inhibition (non-cancer cell line)", "method": "as §1"}, "[7]": {"system": "Hep G2 cell line (hepatocellular carcinoma)", "test": "MTT cell viability assay, Hep G2", "format": "cell-based", "settings": "Homo sapiens, HepG2, extract concentrations normalized to fucoxanthin purity, read-out: IC50, growth inhibition", "method": "as §2"}, "[8]": {"system": "A549 cell line (lung carcinoma)", "test": "MTT cell viability assay, A549", "format": "cell-based", "settings": "Homo sapiens, extract concentrations normalized to fucoxanthin purity, read-out: IC50, growth inhibition", "method": "as §2"}, "[9]": {"system": "SiHa cell line (cervix squamous carcinoma)", "test": "MTT cell viability assay, SiHa", "format": "cell-based, human", "settings": "extract concentrations normalized to fucoxanthin purity, read-out: IC50, growth inhibition", "method": "as §2"}, "[10]": {"system": "Lovo cell line (colon adenocarcinoma)", "test": "MTT cell viability assay, Lovo", "format": "cell-based", "settings": "Homo sapiens, extract concentrations normalized to fucoxanthin purity, read-out: IC50, growth inhibition", "method": "as §2"}, "[11]": {"system": "WiDr cell line (colon adenocarcinoma)", "test": "MTT cell viability assay, WiDr", "format": "cell-based", "settings": "Homo sapiens, extract concentrations normalized to fucoxanthin purity, read-out: IC50, growth inhibition", "method": "as §2"}, "[12]": {"system": "MCF-7 cell line (breast adenocarcinoma)", "test": "MTT cell viability assay, MCF-7", "format": "cell-based", "settings": "Homo sapiens, MCF7, extract concentrations normalized to fucoxanthin purity, read-out: IC50, growth inhibition", "method": "as §2"}, "[13]": {"system": "Malme-3M cell line (malignant melanoma)", "test": "MTT cell viability assay, Malme-3M", "format": "cell-based, human", "settings": "for IC50: Homo sapiens, extract concentrations normalized to fucoxanthin purity, read-out: IC50, growth inhibition", "method": "as §2"}, "mouse bone marrow cells": {"system": "mouse bone marrow cells", "parameters": "method as in PMID 21720124, PMID 21720125", "settings": "cited from earlier work"}, "[14]": {"system": "human dermal fibroblasts (HDFb)", "test": "MTT cell viability assay, non-cancer HDFb", "format": "cell-based", "settings": "Fibroblast, extract concentrations normalized to fucoxanthin purity, read-out: IC50, growth inhibition (non-cancer cell line)", "method": "as §1"}, "mice": {"system": "mice", "parameters": "method as in PMID 22072997", "settings": "repeated dose of 500 and 1000 mg/kg for 30 day; cited from earlier work"}}, "note": "Where two headings read alike, the source gives them in different places.", "data": [{"smiles": "CC(=O)O[C@H]1CC(C)(C)C(=C=C/C(C)=C/C=C/C(C)=C/C=C/C=C(C)/C=C/C=C(\\C)C(=O)C[C@@]23O[C@]2(C)C[C@@H](O)CC3(C)C)[C@](C)(O)C1", "note": "[Pure fucoxanthin, fucoxanthin]", "values": [{"measurement": "50% lethal dose", "setting": "[1]", "result": "more than 2000 mg/kg body weight"}, {"measurement": "IC50", "setting": "[2]; 48 h treatment", "result": 3.98, "unit": "µM"}, {"measurement": "IC50", "setting": "[2]; 72 h treatment", "result": 3.36, "unit": "µM"}, {"measurement": "effect on growth of human non-cancer cells", "setting": "human non-cancer cells", "result": "promote the growth"}, {"measurement": "viability at 100 µM", "setting": "[3]", "result": "~20", "unit": "%"}, {"measurement": "IC50", "setting": "[4]; 48 h treatment", "result": "52.7 ± 1.07", "unit": "µM"}, {"measurement": "IC50", "setting": "[4]; 72 h treatment", "result": "31.2 ± 2.62", "unit": "µM"}, {"measurement": "IC50", "setting": "[5]; NCI-H522, 48 h treatment", "result": "46.1 ± 1.07", "unit": "µM"}, {"measurement": "IC50", "setting": "[5]; NCI-H522, 72 h treatment", "result": "24.5 ± 1.58", "unit": "µM"}, {"measurement": "toxicity at repeated doses", "setting": "rats", "result": "did not show obvious toxicity"}, {"measurement": "growth inhibition effect on cells", "setting": "[6]; HEK293, 6.25 μM, 24- and 48-h treatment", "result": "no growth inhibition effect"}, {"measurement": "IC50", "setting": "[6]; HEK293, 48 h treatment", "result": 18.7, "unit": "µM"}, {"measurement": "IC50", "setting": "[6]; HEK293, 72 h treatment", "result": 7.66, "unit": "µM"}, {"measurement": "IC50", "setting": "[7]; Hep G2, 48 h treatment", "result": "58.9 ± 1.23", "unit": "µM"}, {"measurement": "IC50", "setting": "[7]; Hep G2, 72 h treatment", "result": "25.9 ± 1.69", "unit": "µM"}, {"measurement": "IC50", "setting": "[8]; A549, 48 h treatment", "result": "44.7 ± 2.26", "unit": "µM"}, {"measurement": "IC50", "setting": "[8]; A549, 72 h treatment", "result": "25.6 ± 1.07", "unit": "µM"}, {"measurement": "IC50", "setting": "[9]; 48 h treatment", "result": 37.8, "unit": "µM"}, {"measurement": "IC50", "setting": "[9]; Homo sapiens, 48 h, 48 h treatment", "result": "37.6 ± 1.49", "unit": "µM"}, {"measurement": "IC50", "setting": "[9]; Homo sapiens, 72 h, 72 h treatment", "result": "18.9 ± 2.16", "unit": "µM"}, {"measurement": "IC50", "setting": "[10]; 48 h treatment", "result": "39.6 ± 0.94", "unit": "µM"}, {"measurement": "IC50", "setting": "[10]; 72 h treatment", "result": "21.8 ± 1.17", "unit": "µM"}, {"measurement": "IC50", "setting": "[11]; 48 h treatment", "result": "42.3 ± 1.25", "unit": "µM"}, {"measurement": "IC50", "setting": "[11]; 72 h treatment", "result": "25 ± 1.63", "unit": "µM"}, {"measurement": "IC50", "setting": "[12]; MCF-7, 48 h treatment", "result": "44 ± 2.61", "unit": "µM"}, {"measurement": "IC50", "setting": "[12]; MCF-7, 72 h treatment", "result": "22.5 ± 1.26", "unit": "µM"}, {"measurement": "IC50", "setting": "[13]; 48 h treatment", "result": "28 ± 1.36", "unit": "µM"}, {"measurement": "IC50", "setting": "[13]; 72 h treatment", "result": "17.3 ± 2.65", "unit": "µM"}, {"measurement": "concentration from which cell viability is significantly decreased", "setting": "[13]; within 24 h", "result": "≥ 50", "unit": "µM"}, {"measurement": "genotoxic/mutagenic effects", "setting": "mouse bone marrow cells", "result": "not found"}, {"measurement": "IC50", "setting": "[14]; 48 h treatment", "result": 32.2, "unit": "µM"}, {"measurement": "IC50", "setting": "[14]; 72 h treatment", "result": 15.7, "unit": "µM"}, {"measurement": "histological abnormality in tissues (liver, kidney, spleen, gonadal)", "setting": "mice", "result": "no abnormality was found"}]}]}
